The text below walks through data of US5994342A, “3-(substituted methyl)-4-oxa-1-azabicyclo[3.2.0]heptan-7-one derivatives useful as antitumor agents” (priority 1994, dated 1999).

Values after ≈ are worked out from the molar mass of the structure shown. Structures can show the parent of a compound that is named as a salt.

The subject of the experiment is KB cells. The experiment in a line: In vitro KB cell cytotoxicity assay (crystal violet). The experiment is classed as cell-based. Particulars: Homo sapiens, 72 h, 3 days culture, read-out: KB Cell Cytotoxicity TD50. As to the method: In Vitro KB Cell Cytotoxicity Assay In vitro KB cell cytoxocity assay was done by modification of the crystal violet assay ([…] et al., Anal Biochem., 159, 109-113 (1986). KB cells were cultivated in Eagles minimum essential medium supplemented with 10% calf serum and incubated at 37° C. in a humidified 5% CO2 atmosphere to prepare a cell stock. Cells were counted using a neubauer hemocytometer and seeded in 96 well plates at 100 μl of 3×10^4 cells/ml and cultured for one day. […] Control wells were identical except that test compound was absent. These were cultured for three days. Then the cells were fixed with addition of 20 μl of 25% glutaraldehyde for 15 minutes, washed with water and dried. Then stained with 100 μl of 0.05% crystal violet for 15 minutes, washed with water and dried. The wells are eluted with […] of 0.05M NaH2 PO4 /ethanol (1:1 v/v) and read at OD540 on a multiscan spectrophotometer. Inhibition value of cell growth was calculated based on optical density using the following equation; [formula] TD50 values were calculated from linear regression ines of the log-logit plot.

Regarding `COc1ccc(C(=O)NC[C@@H]2CN3C(=O)C[C@H]3O2)cc1OC` (racemic) [Example 26, (3RS,5RS)-3-[N-(3,4-Dimethoxybenzoyl)aminomethyl]-4-oxa-1-azabicyclo[3.2.0]heptan-7-one], the IC50 worked out at 0.249 µg/mL (≈ 0.813 µM).
The figure for `CC(=O)NCCCCCC(=O)NC[C@@H]1CN2C(=O)C[C@H]2O1` (racemic) [Example 17, (3RS,5RS)-3-[N-(6-Acetylaminohexanoyl)aminomethyl]-4-oxa-1-azabicyclo[3.2.0]heptan-7-one] is 0.439 µg/mL (≈ 1.48 µM).
Consider `O=C(NC[C@@H]1CN2C(=O)C[C@H]2O1)c1ccc(O)cc1` (racemic) [Example 24, (3RS,5RS)-3-[N-(4-Hydroxybenzoyl)aminomethyl]-4-oxa-1-azabicyclo[3.2.0]heptan-7-one], for which the IC50 worked out at 0.276 µg/mL (≈ 1.05 µM).
In the case of `O=C(NC[C@@H]1CN2C(=O)C[C@H]2O1)c1cccnc1` (racemic) [Example 32, (3RS,5RS)-3-[N-[(Pyridin-3-yl)carbonyl]aminomethyl]-4-oxa-1-azabicyclo[3.2.0]heptan-7-one], the IC50 was 0.78 µg/mL (≈ 3.15 µM).
Turning to `N#Cc1ccc(C(=O)NC[C@@H]2CN3C(=O)C[C@H]3O2)cc1` (racemic) [Example 30, (3RS,5RS)-3-[N-(4-Cyanobenzoyl)aminomethyl]-4-oxa-1-azabicyclo[3.2.0]heptan-7-one], the IC50 was found to be 0.378 µg/mL (≈ 1.39 µM).
On to `O=C(CCCCCBr)NC[C@@H]1CN2C(=O)C[C@H]2O1` (racemic) [Example 13, (3RS,5RS)-3-[N-(6-Bromohexanoyl)aminomethyl]-4-oxa-1-azabicyclo[3.2.0]heptan-7-one], for which the IC50 worked out at 0.491 µg/mL (≈ 1.54 µM).
In the case of `Cc1ccc(S(=O)(=O)NC[C@H]2CN3C(=O)C[C@H]3O2)cc1` (racemic) [Example 36, (3RS,5RS)-3-[N-(4-Toluenesulfonyl)aminomethyl]-4-oxa-1-azabicyclo[3.2.0]heptan-7-one] it was 0.338 µg/mL (≈ 1.14 µM); in that of `C#CC(=O)NC[C@@H]1CN2C(=O)C[C@H]2O1` (racemic) [Example 20, (3RS,5RS)-3-[N-Propynoylaminomethyl]-4-oxa-1-azabicyclo[3.2.0]heptan-7-one], 0.333 µg/mL (≈ 1.71 µM); in that of `O=C(NC[C@@H]1CN2C(=O)C[C@H]2O1)c1cc(F)ccc1F` (racemic) [Example 28, (3RS,5RS)-3-[N-(2,5-Difluorobenzoyl)aminomethyl]-4-oxa-1-azabicyclo[3.2.0]heptan-7-one], 0.379 µg/mL (≈ 1.34 µM).
Turning to `CC(=O)N[C@@H](C(=O)OC[C@H]1CN2C(=O)C[C@@H]2O1)C(C)C` (mixture of isomers) [Example 61, (3RS,5SR)-3-(D-2-Acetylamino-3-methylbutyryl)oxymethyl-4-oxa-1-azabicyclo[3.2.0]heptan-7-one], the IC50 was found to be 0.385 µg/mL.
As for `O=C(O)CCC(=O)NC[C@H]1CN2C(=O)C[C@@H]2O1` (relative stereo) [Example 18, Sodium{N-[(3RS,5RS)-7-oxo-1-aza-4-oxabicyclo[3.2.0]hept-3-yl]methylamino}succinate], the IC50 stood at 2.85 µg/mL.
Regarding `O=C1C[C@H]2O[C@@H](CNS(=O)(=O)c3ccc(Cl)cc3)CN12` (racemic) [Example 37, (3RS,5RS)-3-[N-(4-Chlorobenzenesulfonyl)aminomethyl]-4-oxa-1-azabicyclo[3.2.0]heptan-7-one], the IC50 is 0.484 µg/mL (≈ 1.53 µM).
`O=C(NC[C@@H]1CN2C(=O)C[C@H]2O1)c1ccc(F)cc1` (racemic) [Example 27, (3RS,5RS)-3-[N-(4-Fluorobenzoyl)aminomethyl]-4-oxa-1-azabicyclo[3.2.0]heptan-7-one]: the IC50 was found to be 0.24 µg/mL (≈ 0.908 µM).
Regarding `COc1ccc(C(=O)NC[C@@H]2CN3C(=O)C[C@H]3O2)cc1` (racemic) [Example 25, (3RS,5RS)-3-[N-(4-Methoxybenzoyl)aminomethyl]-4-oxa-1-azabicyclo[3.2.0]heptan-7-one], the IC50 is 0.255 µg/mL (≈ 0.923 µM).
In the case of `O=C(NC[C@@H]1CN2C(=O)C[C@H]2O1)OCc1ccccc1` (racemic) [Example 21, (3RS,5RS)-3-[N-(Benzyloxycarbonyl)aminomethyl]-4-oxa-1-azabicyclo[3.2.0]heptan-7-one], the IC50 worked out at 0.34 µg/mL (≈ 1.23 µM).
The figure for `C[C@@H](NC(=O)OCc1ccccc1)C(=O)N[C@@H](CO)C(=O)OCC1CN2C(=O)CC2O1` (stereo partly drawn) [Example 71, (3RS,5SR)-3-[L-2-N-(D-2-N-Benzyloxycarbonylaminopropanoyl)amino-3-hydroxypropanoyl]oxymethyl-4-oxa-1-azabicyclo[3.2.0]heptan-7-one] is 0.549 µg/mL (≈ 1.26 µM); for `O=C(N[C@@H](CO)C(=O)OCC1CN2C(=O)CC2O1)OCc1ccccc1` (stereo partly drawn) [Example 70, (3RS,5SR)-3-(L-2-N-Benzyloxycarbonylamino-3-hydroxypropanyl)oxymethyl-4-oxa-1-azabicyclo[3.2.0]heptan-7-one] it is 0.352 µg/mL (≈ 0.966 µM); for `O=COCCCCCC(=O)NC[C@@H]1CN2C(=O)C[C@H]2O1` (racemic) [Example 14, (3RS,5RS)-3-[N-(6-Formyloxyhexanoyl)aminomethyl]-4-oxa-1-azabicyclo[3.2.0]heptan-7-one] it is 0.243 µg/mL (≈ 0.855 µM).
On to `O=C(CO)NC[C@@H]1CN2C(=O)C[C@H]2O1` (racemic) [Example 12, (3RS,5RS)-3-[N-(Hydroxyacetyl)aminomethyl]-4-oxa-1-azabicyclo[3.2.0]heptan-7-one], for which the IC50 worked out at 0.125 µg/mL (≈ 0.624 µM).
As to `O=C(N[C@@H](COCc1ccccc1)C(=O)OCC1CN2C(=O)CC2O1)OCc1ccccc1` (stereo partly drawn) [Example 72, (3RS,5SR)-3-L-(2-N-Benzyloxycarbonylamino-3-benzyloxypropanoyl)oxymethyl-4-oxa-1-azabicyclo[3.2.0]heptan-7-one], the IC50 was found to be 1.67 µg/mL (≈ 3.67 µM).
The figure for `C=CCCC(=O)NC[C@@H]1CN2C(=O)C[C@H]2O1` (racemic) [Example 19, (3RS,5RS)-3-[N-(4-Pentenoyl)aminomethyl]-4-oxa-1-azabicyclo[3.2.0]heptan-7-one] is 0.266 µg/mL (≈ 1.19 µM); for `[N-]=[N+]=NCCCCCC(=O)NC[C@@H]1CN2C(=O)C[C@H]2O1` (racemic) [Example 15, (3RS,5RS)-3-[N-(6-Azidohexanoyl)aminomethyl]-4-oxa-1-azabicyclo[3.2.0]heptan-7-one] it is 0.254 µg/mL (≈ 0.903 µM); for `C[C@@H](NC(=O)OCc1ccccc1)C(=O)N[C@@H](COCc1ccccc1)C(=O)OCC1CN2C(=O)CC2O1` (stereo partly drawn) [Example 73, (3RS,5R)-3-[L-2-N-(D-2-N-Benzyloxycarbonylaminopropanoyl)amino-3-benzyloxypropanoyl]oxymethyl-4-oxa-1-azabicyclo[3.2.0]heptan-7-one] it is 2.22 µg/mL (≈ 4.22 µM).
In the case of `C[C@H](N)C(=O)NCC1CN2C(=O)CC2O1` (stereo partly drawn) [Example 50B, (3RS,5RS)-3-N-(L-2-Aminopropanoyl)aminomethyl-4-oxa-1-azabicyclo[3.2.0]heptan-7-one hydrochloride], the IC50 was found to be 0.657 µg/mL.
For `CC(C)C(=O)NC[C@@H]1CN2C(=O)C[C@H]2O1` (racemic) [Example 5, (3RS,5RS)-3-[N-(2-Methylpropanoyl)aminomethyl]-4-oxa-1-azabicyclo[3.2.0]heptan-7-one], the IC50 turned out to be 0.181 µg/mL (≈ 0.853 µM).
In the case of `[N-]=[N+]=NCC(=O)NC[C@@H]1CN2C(=O)C[C@H]2O1` (racemic) [Example 9, (3RS,5RS)-3-[N-(Azidoacetyl)aminomethyl]-4-oxa-1-azabicyclo[3.2.0]heptan-7-one] it was 0.296 µg/mL (≈ 1.31 µM); in that of `O=COCC(=O)NC[C@@H]1CN2C(=O)C[C@H]2O1` (racemic) [Example 11, (3RS,5RS)-3-[N-(Formyloxyacetyl)aminomethyl]-4-oxa-1-azabicyclo[3.2.0]heptan-7-one], 0.147 µg/mL (≈ 0.644 µM).
In the case of `O=C(CCCCCn1ccnn1)NC[C@@H]1CN2C(=O)C[C@H]2O1` (racemic) [Example 16, (3RS,5RS)-3-[N-[(1,2,3-Triazol-1-yl)hexanoyl]aminomethyl]-4-oxa-1-azabicyclo[3.2.0]heptan-7-one] it was 0.318 µg/mL (≈ 1.03 µM); in that of `CC(=O)N[C@@H](CCCCNC(=O)OCc1ccccc1)C(=O)OCC1CN2C(=O)CC2O1` (stereo partly shown) [Example 78], 3.38 µg/mL (≈ 7.55 µM).
In the case of `N[C@@H](CO)C(=O)NCC1CN2C(=O)CC2O1` (stereo partly drawn) [Example 76B, (3RS,5RS)-3-[N-(L-2-Amino-3-hydroxypropanoyl)aminomethyl]-4-oxa-1-azabicyclo[3.2.0]heptan-7-one hydrochloride] it was 8.81 µg/mL.
As for `CC(=O)NC[C@@H]1CN2C(=O)C[C@H]2O1` [Example 3, (3R,5R)-3-(N-Acetylaminomethyl)-4-oxa-1-azabicyclo[3.2.0]heptan-7-one], the IC50 was 3.15 µg/mL (≈ 17.1 µM).
In the case of `N[C@@H](CC(=O)O)C(=O)N[C@@H](Cc1ccccc1)C(=O)NCC1CN2C(=O)CC2O1` (stereo partly drawn) [Example 64B, (3RS,5RS)-3-N-[L-2-N-(L-2-Amino-3-carboxypropanoyl)amino-3-phenylpropanoyl]aminomethyl-4-oxa-1-azabicyclo[3.2.0]heptan-7-one] it was 2.65 µg/mL (≈ 6.55 µM); in that of `O=C(Cn1ccnn1)NC[C@@H]1CN2C(=O)C[C@H]2O1` (racemic) [Example 10, (3RS,5RS)-3-[N-(1,2,3-Triazole-1-yl)acetylaminomethyl]-4-oxa-1-azabicyclo[3.2.0]heptan-7-one], 0.282 µg/mL (≈ 1.12 µM).
As for `O=C(NC[C@@H]1CN2C(=O)C[C@H]2O1)c1cc(F)c(F)cc1F` (racemic) [Example 29, (3RS,5RS)-3-[N-(2,4,5-Trifluorobenzoyl)aminomethyl]-4-oxa-1-azabicyclo[3.2.0]heptan-7-one], the IC50 stood at 0.535 µg/mL (≈ 1.78 µM).
